Source: PubChem BioAssay (NCI)
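Results reflect a 48-hour exposure of cells in 96-well plates to compound at five concentrations. Abbreviation: GI50, concentration required for 50% inhibition of growth. TGI marks complete inhibition of growth.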

Key:
Experiment in all cases: NCI tumour cell line growth inhibition, 48 h
786-0 renal = system: 786-0 renal
A498 renal = system: A498 renal
A549 NSCLC = system: A549 NSCLC
ACHN renal = system: ACHN renal
BT-549 breast = system: BT-549 breast
CAKI-1 renal = system: CAKI-1 renal
CCRF-CEM leukemia = system: CCRF-CEM leukemia
COLO 205 colon = system: COLO 205 colon
DU-145 prostate = system: DU-145 prostate
EKVX NSCLC = system: EKVX NSCLC
HCC-2998 colon = system: HCC-2998 colon
HCT-116 colon = system: HCT-116 colon
HCT-15 colon = system: HCT-15 colon
HL-60(TB) leukemia = system: HL-60(TB) leukemia
HOP-62 NSCLC = system: HOP-62 NSCLC
HOP-92 NSCLC = system: HOP-92 NSCLC
HS 578T breast = system: HS 578T breast
HT29 colon = system: HT29 colon
IGROV1 ovarian = system: IGROV1 ovarian
K-562 leukemia = system: K-562 leukemia
KM12 colon = system: KM12 colon
LOX IMVI melanoma = system: LOX IMVI melanoma
M14 melanoma = system: M14 melanoma
MALME-3M melanoma = system: MALME-3M melanoma
MCF7 breast = system: MCF7 breast
MDA-MB-231 breast = system: MDA-MB-231 breast
MDA-MB-435 = system: MDA-MB-435
MOLT-4 leukemia = system: MOLT-4 leukemia

O=C(Nc1ccc(Oc2cccc(F)c2)c(Cl)c1)c1cnccn1
GI50 (786-0 renal): 3.03 µM
TGI (786-0 renal): > 50 µM
GI50 (A498 renal): 3.77 µM
TGI (A498 renal): 43.3 µM
GI50 (A549 NSCLC): 938 nM
TGI (A549 NSCLC): > 50 µM
GI50 (ACHN renal): 3.3 µM
TGI (ACHN renal): > 50 µM
GI50 (BT-549 breast): 2180 nM
TGI (BT-549 breast): > 50 µM
GI50 (CAKI-1 renal): 2130 nM
TGI (CAKI-1 renal): > 50 µM
GI50 (CCRF-CEM leukemia): 1300 nM
TGI (CCRF-CEM leukemia): > 50 µM
GI50 (COLO 205 colon): 789 nM
TGI (COLO 205 colon): > 50 µM
GI50 (DU-145 prostate): 2000 nM
TGI (DU-145 prostate): > 50 µM
GI50 (EKVX NSCLC): 2670 nM
TGI (EKVX NSCLC): > 50 µM
GI50 (HCC-2998 colon): 6.04 µM
TGI (HCC-2998 colon): > 50 µM
GI50 (HCT-116 colon): 596 nM
TGI (HCT-116 colon): > 50 µM
GI50 (HCT-15 colon): 280 nM
TGI (HCT-15 colon): > 50 µM
GI50 (HL-60(TB) leukemia): 1290 nM
TGI (HL-60(TB) leukemia): 3.72 µM
GI50 (HOP-62 NSCLC): 973 nM
TGI (HOP-62 NSCLC): > 50 µM
GI50 (HOP-92 NSCLC): 1440 nM
TGI (HOP-92 NSCLC): > 50 µM
GI50 (HS 578T breast): 1190 nM
TGI (HS 578T breast): > 50 µM
GI50 (HT29 colon): 234 nM
TGI (HT29 colon): > 50 µM
GI50 (IGROV1 ovarian): 1830 nM
TGI (IGROV1 ovarian): > 50 µM
GI50 (K-562 leukemia): 242 nM
TGI (K-562 leukemia): > 50 µM
GI50 (KM12 colon): 357 nM
TGI (KM12 colon): > 50 µM
GI50 (LOX IMVI melanoma): 1690 nM
TGI (LOX IMVI melanoma): > 50 µM
GI50 (M14 melanoma): 780 nM
TGI (M14 melanoma): > 50 µM
GI50 (MALME-3M melanoma): 3.03 µM
TGI (MALME-3M melanoma): > 50 µM
GI50 (MCF7 breast): 413 nM
TGI (MCF7 breast): > 50 µM
GI50 (MDA-MB-231 breast): 3.28 µM
TGI (MDA-MB-231 breast): > 50 µM
GI50 (MDA-MB-435): 149 nM
TGI (MDA-MB-435): 683 nM
GI50 (MOLT-4 leukemia): 1850 nM
TGI (MOLT-4 leukemia): > 50 µM
